{"source": "patent US11724997B2", "about": "“Compounds and compositions for treating conditions associated with APJ receptor activity” (Annapurna Bio, Inc., priority 2018, dated 2023)", "target": "T1, APJ Receptor (Homo sapiens, UniProt P35414)", "T1 sequence (P35414 1-380)": "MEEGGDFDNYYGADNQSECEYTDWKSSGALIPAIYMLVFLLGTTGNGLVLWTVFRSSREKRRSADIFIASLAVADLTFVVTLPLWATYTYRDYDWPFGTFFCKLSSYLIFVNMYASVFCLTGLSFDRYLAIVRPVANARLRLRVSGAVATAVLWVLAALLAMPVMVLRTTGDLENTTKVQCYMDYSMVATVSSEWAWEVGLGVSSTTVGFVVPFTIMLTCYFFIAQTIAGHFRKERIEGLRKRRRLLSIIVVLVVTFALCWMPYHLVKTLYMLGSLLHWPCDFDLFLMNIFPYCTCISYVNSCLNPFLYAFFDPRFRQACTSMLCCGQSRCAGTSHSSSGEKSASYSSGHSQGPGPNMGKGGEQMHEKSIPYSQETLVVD", "assay": "APJ cAMP assay: inhibition of forskolin-stimulated cAMP, enzyme fragment complementation, in CHO-K1 cells stably expressing the APJ Receptor", "type": "cell-based", "conditions": "CHO-K1 cell line (DiscoverX) stably expressing APJ Receptor; EC80 forskolin; 30 minutes at 37° C.; read-out: APJ cAMP EC50 Potency range", "from_the_text": "Activation of APJ receptor is known to inhibit forskolin-stimulated cyclic AMP (cAMP) production in cells in a pertussis toxin-sensitive manner which indicates primary coupling to the GαI subunit of the G protein heterotrimeric complex. In addition to signaling through G protein and inhibition of cAMP, APJ receptor activation also results in β-arrestin recruitment, receptor internalization and activation of extracellular-regulated kinases (ERKs).\nIn order to optimize functional activity directed toward Gi coupling we utilized a CHO-K1 cell line developed by DiscoverX stably expressing the APJ Receptor. Cells expressing APJR receptor were plated in a 384-well microtiter plates and incubated overnight at 37° C. with 5% CO2 to allow the cells to attach and grow. Media was then aspirated from the cells and replaced with 15 uL 2:1 Hanks Balanced Salt Solution (HBSS)/10 mM Hepes. cAMP XS+ Ab reagent. Five microliters (5 uL) of previously generated compound sample stocks at 4× final concentration in assay buffer containing 4×EC80 forskolin were then added to the cells and allowed to incubate at 37° C. for 30 minutes.\nAfter incubation the assay signal was generated using a technology termed enzyme fragment complementation (EFC). In EFC the enzyme B-galactosidase is split into two complementary portions (EA and ED). The fragment ED is fused to cAMP and in the assay format competes with endogenous cAMP for binding to a cAMP specific antibody. Activated B-Gal is formed when exogenous EA fragment binds to free ED-cAMP (not bound to cAMP specific antibody). Activated enzyme levels are detected through conversion of B-gal chemiluminescent substrate which generates a detectable luminescence signal and read on standard microtiter plate.\nThe methodology for detection of cAMP using EFC requires incubation with 20 uL of cAMP XS+ ED/CL lysis cocktail for one hour followed by incubation with 20 uL cAMP XS+ EA reagent for three hours at room temperature. Microplates were read following signal generation with a PerkinElmer Envision instrument utilizing chemiluminescent signal detection.\nCompound activity was analyzed using CBIS data analysis suite (ChemInnovation, CA).\nPercentage activity was calculated using the following formula: % Activity=[…]×(1−(mean RLU of test sample−mean RLU of Max control)/(mean RLU of vehicle control−mean RLU of Max control))\nThe biological activity of the exemplified compounds of this invention determined by the assay described above is shown in Table 1. The APJ cAMP EC50 potency ranges are as follows: A: EC50<1 nM; B: 1≤EC50<100 nM; and C: 100≤EC50<10,000 nM."}
{"smiles": "COc1cccc(-c2nnc(C(=O)NS(=O)(=O)Cc3ncc(Cl)cn3)n2-c2c(OC)cccc2OC)n1", "note": "[Example 29, N-(((5-chloropyrimidin-2-yl)methyl)sulfonyl)-4-(2,6-dimethoxyphenyl)-5-(6-methoxypyridin-2-yl)-4H-1,2,4-triazole-3-carboxamide]", "values": [{"measurement": "EC50", "result": "< 1", "unit": "nM"}]}
{"smiles": "COc1cccc(OC)c1-n1c(C(=O)NS(=O)(=O)Cc2ncccn2)nnc1-c1cncc(C)c1", "note": "[Example 59, 4-(2,6-Dimethoxyphenyl)-5-(5-methylpyridin-3-yl)-N-((pyrimidin-2-ylmethyl)sulfonyl)-4H-1,2,4-triazole-3-carboxamide]", "values": [{"measurement": "EC50", "result": "100 to 10000", "unit": "nM"}]}
{"smiles": "COc1cccc(OC)c1-n1c(C(=O)NS(=O)(=O)Cc2ccccc2)nnc1-c1ncc(C)c(OC)n1", "note": "[Example 12, N-(benzylsulfonyl)-4-(2,6-dimethoxyphenyl)-5-(4-methoxy-5-methylpyrimidin-2-yl)-4H-1,2,4-triazole-3-carboxamide]", "values": [{"measurement": "EC50", "result": "100 to 10000", "unit": "nM"}]}
{"smiles": "COc1cccc(OC)c1-n1c(C(=O)NS(=O)(=O)Cc2ccccc2)nnc1-c1cccc(OC2CC2)n1", "note": "[Example 19, N-(benzylsulfonyl)-5-(6-cyclopropoxypyridin-2-yl)-4-(2,6-dimethoxyphenyl)-4H-1,2,4-triazole-3-carboxamide]", "values": [{"measurement": "EC50", "result": "< 1", "unit": "nM"}]}
{"smiles": "CCn1ccc(-c2nnc(C(=O)NS(=O)(=O)Cc3ccccc3)n2-c2c(OC)cccc2OC)n1", "note": "[Example 5, N-(benzylsulfonyl)-4-(2,6-dimethoxyphenyl)-5-(1-ethyl-1H-pyrazol-3-yl)-4H-1,2,4-triazole-3-carboxamide]", "values": [{"measurement": "EC50", "result": "1 to 100", "unit": "nM"}]}
{"smiles": "CCOc1cccc(-c2nnc(C(=O)NS(C)(=O)=O)n2-c2c(OC)cccc2OC)n1", "note": "[Example 9, 4-(2,6-Dimethoxyphenyl)-5-(6-ethoxypyridin-2-yl)-N-(methylsulfonyl)-4H-1,2,4-triazole-3-carboxamide]", "values": [{"measurement": "EC50", "result": "1 to 100", "unit": "nM"}]}
{"smiles": "COc1cccc(OC)c1-n1c(C(=O)NS(=O)(=O)Cc2ccccc2)nnc1-c1ccn(C)n1", "note": "[Example 4, N-(benzylsulfonyl)-4-(2,6-dimethoxyphenyl)-5-(1-methyl-1H-pyrazol-3-yl)-4H-1,2,4-triazole-3-carboxamide]", "values": [{"measurement": "EC50", "result": "1 to 100", "unit": "nM"}]}
{"smiles": "COc1cccc(-c2nnc(C(=O)NS(=O)(=O)CC3CCCCC3)n2-c2c(OC)cccc2OC)n1", "note": "[Example 34, N-((cyclohexylmethyl)sulfonyl)-4-(2,6-dimethoxyphenyl)-5-(6-methoxypyridin-2-yl)-4H-1,2,4-triazole-3-carboxamide]", "values": [{"measurement": "EC50", "result": "< 1", "unit": "nM"}]}
{"smiles": "COc1ccn(-c2nnc(C(=O)NS(=O)(=O)Cc3ccccc3)n2-c2c(OC)cccc2OC)n1", "note": "[Example 10, N-(enzylsulfonyl)-4-(2,6-dimethoxyphenyl)-5-(3-methoxy-1H-pyrazol-1-yl)-4H-1,2,4-triazole-3-carboxamide]", "values": [{"measurement": "EC50", "result": "100 to 10000", "unit": "nM"}]}
{"smiles": "CCOc1cccc(-c2nnc(C(=O)NS(=O)(=O)CCc3ccccn3)n2-c2c(OC)cccc2OC)n1", "note": "[Example 51, 4-(2,6-Dimethoxyphenyl)-5-(6-ethoxypyridin-2-yl)-N-((2-(pyridin-2-yl)ethyl)sulfonyl)-4H-1,2,4-triazole-3-carboxamide]", "values": [{"measurement": "EC50", "result": "< 1", "unit": "nM"}]}
{"smiles": "CCOc1cccc(-c2nnc(C(=O)NS(=O)(=O)Cc3ncc(Cl)cn3)n2-c2c(OC)cccc2OC)n1", "note": "[Example 43, N-(((5-chloropyrimidin-2-yl)methyl)sulfonyl)-4-(2,6-dimethoxyphenyl)-5-(6-ethoxypyridin-2-yl)-4H-1,2,4-triazole-3-carboxamide]", "values": [{"measurement": "EC50", "result": "< 1", "unit": "nM"}]}
